From PubChem BioAssay (NCI)
Values joined by “and” are separate entries in the source; they are usually repeats but may differ in a detail not shown here. Equal values may be shown once.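 A five-concentration, 48-hour dose response in 96-well plates underlies each endpoint, interpolated linearly between surrounding concentrations. GI50 is the concentration that inhibits growth by half. TGI marks complete inhibition of growth.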

How the values were obtained:
Assay in all cases: NCI anticancer screen, dose series, 48 h
[1] = system: KM12 colon
[2] = system: A549 NSCLC
[3] = system: SF-539 CNS
[4] = system: HCC-2998 colon
[5] = system: UACC-257 melanoma
[6] = system: SK-MEL-5 melanoma
[7] = system: OVCAR-5 ovarian
[8] = system: NCI-H23 lung
[9] = system: SK-OV-3 ovarian
[10] = system: HOP-62 NSCLC

Compound	GI50 [1]	TGI [1]	GI50 [2]	TGI [2]	GI50 [3]	TGI [3]	GI50 [4]	TGI [4]	GI50 [5]	TGI [5]	GI50 [6]	TGI [6]	GI50 [7]	TGI [7] [µM]	GI50 [8]	TGI [8]	GI50 [9]	TGI [9]	GI50 [10]	TGI [10]
CN(CCOc1ccc(C#N)cc1)CCOc1ccc(C#N)cc1	16.6 µM	66.2 µM	> 100 µM	> 100 µM	> 100 µM	> 100 µM	> 100 µM	> 100 µM	28.9 µM	> 100 µM	78.6 µM	> 100 µM	> 100 µM	> 100	22.6 µM	> 100 µM	> 100 µM	> 100 µM	> 100 µM	> 100 µM
CCCCCCCCCCCCCC(=O)CBr		16.9 µM		50.7 µM		30.7 µM		32.1 µM		17.7 µM		26.3 µM		49.8		23 µM		43.2 µM		50.6 µM
Cc1cc(=O)oc2cc3c(cc12)Oc1ccccc1O3		> 100 µM		> 100 µM		56.7 µM		> 10 µM		> 100 µM		> 100 µM		> 100		> 100 µM		> 100 µM		> 100 µM
COc1ccc2c(c1)OC(N(C(C)=O)C(C)=O)=C(C#N)C2c1ccc(F)cc1 (stereo unspecified)	0.664 µM	> 100 µM	4.45 µM	> 100 µM	1.55 µM	6.93 µM	4.93 µM	> 100 µM	23 µM	> 100 µM	1.98 µM	18.3 µM	7.65 µM	> 100	4.44 µM	> 100 µM	2.47 µM	> 100 µM	1.7 µM	> 100 µM
COc1ccc2oc3cccc(NCCN(C)C)c3c(=O)c2c1		26.7 µM		28.2 µM		28.1 µM		21.9 µM		30.8 µM		30.9 µM		24.9		32.7 µM		28.7 µM		29.2 µM
Nc1nc2c(c(=O)[nH]1)CN(c1ccc(S(N)(=O)=O)cc1)CN2		> 100 µM		> 100 µM						> 100 µM		> 100 µM		> 100						> 100 µM
COc1ccc(-c2cncn2-c2ccc(OC)cc2)cc1	10.2 µM	29 µM	20.6 µM	49.3 µM	11.2 µM	29.2 µM	16.7 µM	32.2 µM	21.4 µM	62.2 µM	17.9 µM	33.8 µM	25.2 µM	82.7	19.1 µM	48.3 µM			22.8 µM	67.4 µM
CC1C(=O)C(C)C(c2ccccc2)N(N=O)C1c1ccccc1 (stereo unspecified)		> 684 µM		> 1000 µM	> 50.3 µM	> 79 µM and 310 µM	> 1000 µM	> 1000 µM		> 897 µM		> 605 µM		> 881	332 µM	> 779 µM	103 µM	> 83.8 µM and 472 µM	111 µM	> 78.3 µM and 360 µM
O=C(CSC(=S)N1CCOCC1)Nc1nc2c(s1)CCCC2		> 100 µM		> 100 µM		> 100 µM		61.2 µM		> 100 µM		> 100 µM		> 100		> 100 µM		> 100 µM		> 100 µM
COc1ccc2c3c(c(=O)n(C)c2c1OC)C=CC(C)(C)O3		77 µM		> 100 µM		> 100 µM		> 100 µM		> 100 µM		30.1 µM		> 100		84.9 µM		> 100 µM		> 100 µM
Fc1ccc2[nH]c3c(NCCCN4CCOCC4)ncnc3c2c1	48.8 µM	> 100 µM			21.3 µM	62.7 µM	61.4 µM	> 100 µM			21.3 µM	73.1 µM	50.5 µM	> 100	51.4 µM	> 100 µM	> 100 µM	> 100 µM	42.8 µM	> 100 µM
CCCCn1cnc2c(SC)ncnc21		> 100 µM		> 100 µM		> 100 µM		> 100 µM		> 100 µM		> 100 µM		> 100		> 100 µM		> 100 µM		> 100 µM
O=C1CC[C@@H](S(=O)(=O)c2ccccc2)[C@@H](/C=C/c2ccccc2)O1		> 100 µM		> 100 µM		> 100 µM		> 100 µM		> 100 µM		> 100 µM		> 100		> 100 µM		> 100 µM		> 100 µM
COc1cc(/C=C/C(=O)c2sc(Nc3ccccc3)nc2C)ccc1O		> 100 µM		> 100 µM		> 100 µM		> 100 µM		> 100 µM		> 100 µM		> 100		> 100 µM		> 100 µM		> 100 µM
OCc1ccc(-c2nn(Cc3ccccc3)c3ccccc23)o1	16.9 µM and 16.6 µM	35.2 µM and 34.5 µM	15.6 µM and 18.5 µM	47.7 µM and > 56.9 µM	16.2 µM and 18.6 µM	32.2 µM and 35.5 µM	15.5 µM and 14.8 µM	36.6 µM and 28 µM	0.268 µM and 0.32 µM	0.972 µM and 1.59 µM	13.7 µM and 14.2 µM	26.7 µM and 27.3 µM	0.564 µM and 0.0852 µM		19.2 µM and 20.9 µM	58.8 µM and 50.8 µM	20.7 µM and 17.6 µM	57.1 µM and 43.9 µM	15.8 µM and 2.86 µM	53.8 µM and 30.2 µM
COc1cc[nH]c1/C=C1\C(=O)Nc2ccc(F)c(I)c21	1.25 µM	> 25 µM	> 25 µM	> 25 µM	> 25 µM	> 25 µM	> 25 µM	> 25 µM	> 25 µM	> 25 µM	> 25 µM	> 25 µM	> 25 µM	> 25	> 25 µM	> 25 µM	> 25 µM	> 25 µM	> 25 µM	> 25 µM
O=c1cc(-c2ccccc2)c2cc3c(=O)ccoc3cc2o1				> 100 µM		> 100 µM		> 100 µM		> 100 µM		> 100 µM				> 100 µM				> 100 µM
